Where a name gives a salt, the structure may show the parent alone. Bridge positions count the residues as written; N and C are the ends. Square brackets hold non-standard residues; d marks the D form. Peptide text beside a SMILES is read from it. hArg = N=C(N)NCCCC[C@H](N)C(=O)O; Mpa = O=C(O)CCS
System: PRKACA-PRKAR2A interaction (SmBiT-PRKACA / LgBiT-PRKAR2A), protein kinase A
Set-up: NanoLuc complementation counter-screen in cell extract, PRKACA with PRKAR2A, loss of luminescence, detects NanoLuc interference
Settings: counter-screen for NanoLuc interference, 0.5 h, 20 µM, inhibitor, Inh (PKA)

Inh (PKA) [%]	SMILES
3.498	COc1ccc2[nH]c([S@@+]([O-])Cc3ncc(C)c(OC)c3C)nc2c1 [UM0142444:01, Esomeprazole Magnesium]
3.767	O=C(Cc1ccc(-c2ccc(OCCN3CCOCC3)cc2)cn1)NCc1ccccc1 [UM0142472:01, KX2-391]
53.12	COc1cc(Nc2ncc(F)c(Nc3ccc4c(n3)N(COP(=O)(O)O)C(=O)C(C)(C)O4)n2)cc(OC)c1OC [UM0142473:01, Fostamatinib (R788)]
12.17	Cc1cccc(-c2[nH]c(C(C)(C)C)nc2-c2ccc3c(c2)OCO3)n1 [UM0142475:01, SB505124]
0.8137	CCOC(=O)[C@H](C)C[C@@H](Cc1ccc(-c2ccccc2)cc1)NC(=O)CCC(=O)O [UM0142501:01, AHU-377 hemicalcium salt]
0.7443	O=C(c1ccccc1)c1ccc2n1CCC2C(=O)O (stereo not drawn) [UM0142511:01, Ketorolac]
9.074	O=C(O)Cc1ccccc1Nc1c(Cl)cccc1Cl [UM0142522:01, Diclofenac]

Same assay, conditions: counter-screen for NanoLuc interference; 0.5 h, 20 µM; inhibitor

Inh (PKA) [%]	SMILES
27.08	O=C1NC(=O)/C(=C/c2ccc3nccc(-c4ccncc4)c3c2)S1 [UM0142432:01, GSK1059615]
0.4199	Cc1c(CN2CCN(C(=O)[C@H](C)O)CC2)sc2c(N3CCOCC3)nc(-c3cnc(N)nc3)nc12 [UM0142435:01, GDC-0980 (RG7422)]
-0.2162	Cc1c(Cn2c(C)nc3c(C(=O)O)cc(N4CCOCC4)cc32)cccc1C(F)(F)F [UM0142436:01, GSK2636771]
76.02	Cn1cc(C2=C(c3cn(CCCSC(=N)N)c4ccccc34)C(=O)NC2=O)c2ccccc21 [UM0142439:01, Ro 31-8220 Mesylate]
1.04	CCOC(=O)[C@H](CCc1ccccc1)N[C@H]1CS[C@H](c2cccs2)CN(CC(=O)O)C1=O [UM0142447:01, Temocapril HCl]
6.646	COCCCOc1cc(C[C@@H](C[C@H](N)[C@@H](O)C[C@H](C(=O)NCC(C)(C)C(N)=O)C(C)C)C(C)C)ccc1OC [UM0142448:01, Aliskiren Hemifumarate]
37.03	CCn1c2ccccc2c2cc(Nc3ccnc(NCCCN4CCOCC4)n3)ccc21 [UM0142449:01, EHop-016]
1.207	Cc1cn([C@H]2C[C@H](N=[N+]=[N-])[C@@H](CO)O2)c(=O)[nH]c1=O [UM0142451:01, Zidovudine]
-0.7793	CC(C)(C)C(=O)OCOP(=O)(COCCn1cnc2c(N)ncnc21)OCOC(=O)C(C)(C)C [UM0142452:01, Adefovir Dipivoxil]
89.04	Cc1cc(C#N)cc(C)c1Oc1nc(Nc2ccc(C#N)cc2)nc(N)c1Br [UM0142453:01, Etravirine (TMC125)]
0.5167	Cc1cn([C@H]2C=C[C@@H](CO)O2)c(=O)[nH]c1=O [UM0142454:01, Stavudine (d4T)]
64.82	CC(C)CCN1c2nc(Nc3cc(F)c(O)c(F)c3)ncc2N(C)C(=O)C1C (stereo not drawn) [UM0142455:01, BI-D1870]
34.33	CCc1cncnc1N1CCN(Cc2nc3ccc(C(F)(F)F)cc3[nH]2)CC1 [UM0142456:01, PF-4708671]
-0.5355	CNS(=O)(=O)CCc1ccc2[nH]cc(C3CCN(C)CC3)c2c1 [UM0142462:01, Naratriptan]
4.132	Nc1c(Br)cc(Br)cc1CN[C@H]1CC[C@H](O)CC1 [UM0142466:01, Ambroxol HCl]
11.36	O=C1NC(=O)C(c2ccccc2)(c2ccccc2)N1 [UM0142467:01, Phenytoin]
12.65	CCOC(=O)C1=C[C@]2(CC)CCCN3CCc4c(n1c1ccccc41)[C@@H]32 [UM0142468:01, Vinpocetine]
40.39	COc1cc(NC(=O)c2ccc(-c3ccc(Cl)cc3)o2)cc(OC)c1 [UM0142469:01, A-803467]
0.4733	CCCCCCCN(CC)CCCC(O)c1ccc(NS(C)(=O)=O)cc1 (stereo not drawn) [UM0142470:01, Ibutilide Fumarate]
26.47	COc1cc(-c2cc(-c3cccc(O)c3)cnc2N)cc(OC)c1OC [UM0142474:01, K02288]
19.17	CC[C@@]1(O)C(=O)OCc2c1cc1n(c2=O)Cc2cc3c(CN(C)C)c(O)ccc3nc2-1 [UM0142480:01, Topotecan HCl]
0.3639	CCn1c(N)c(C(=O)NC)c(=O)c2ccc(C#C[C@@](C)(O)COC)nc21 [UM0142483:01, SAR131675]
23.47	O=C(CSc1nc2c(c(=O)n1-c1ccccc1)SCC2)Nc1ccc(-c2ccccc2)cn1 [UM0142486:01, IWP-L6]
0.7443	Cc1cc(-c2ncc(CC(=O)Nc3ccc(-c4cnccn4)cn3)cc2C)ccn1 [UM0142488:01, LGK-974]
5.384	O=C(O)c1cc2cccc([N+](=O)[O-])c2[nH]1 [UM0142492:01, CRT0044876]
0.417	NC(=S)N/N=C/c1ncccc1N [UM0142496:01, Triapine]
-0.9688	CCCN1CCN(c2ccc(C(=O)NC3(C(=O)NCC#N)CCCCC3)cc2)CC1 [UM0142500:01, Balicatib]
40.51	CCC(Sc1nnc2c(n1)[nH]c1ccccc12)C(=O)N1c2ccccc2Sc2ccccc21 (stereo not drawn) [UM0142503:01, Inauhzin]

Inh (PKA) [%]	SMILES
11.49	CCCCCCCc1ccc(CCc2cccc(O)c2C(=O)O)cc1 [UM0142505:01, MG 149]
-0.9356	CC(C)NCC(O)c1ccc(NS(C)(=O)=O)cc1 (stereo not drawn) [UM0142510:01, Sotalol hydrochloride]
0.62	COCCCOc1ccnc(C[S+]([O-])c2nc3ccccc3[nH]2)c1C (stereo not drawn) [UM0142515:01, Rabeprazole]
8.15	C#C[C@]1(O)CC[C@H]2[C@@H]3CCC4=CC(=O)CC[C@@H]4[C@H]3C(=C)C[C@@]21CC [UM0142516:01, Etonogestrel]
3.161	CC(C)C(=O)OCC(=O)[C@@]12O[C@H](C3CCCCC3)O[C@@H]1C[C@H]1[C@@H]3CCC4=CC(=O)C=C[C@]4(C)[C@H]3[C@@H](O)C[C@@]12C [UM0142517:01, Ciclesonide]
-0.7534	CC(=O)O[C@H]1Cc2ccccc2N(C(N)=O)c2ccccc21 [UM0142518:01, Eslicarbazepine acetate]
-0.06094	N=C(N)NCCCC[C@@H]1NC(=O)CCSSC[C@@H](C(N)=O)NC(=O)[C@@H]2CCCN2C(=O)[C@H](Cc2c[nH]c3ccccc23)NC(=O)[C@H](CC(=O)O)NC(=O)CNC1=O [UM0142520:01, Eptifibatide] ([Mpa][hArg]GDWPC-NH2; disulfide 1-7)
4.065	COc1cccc(CCc2ccccc2OCC(CN(C)C)OC(=O)CCC(=O)O)c1 (stereo not drawn) [UM0142521:01, Sarpogrelate hydrochloride]
2.396	O=C1CCCC(=O)C1C(=O)c1ccc(C(F)(F)F)cc1[N+](=O)[O-] [UM0142524:01, Nitisinone]
-0.5181	CC(=O)Nc1ccc(O)cc1 [UM0142525:01, Acetaminophen]
43.25	O=C(O)c1ccc(N2C(=O)/C(=C\c3ccc(-c4ccc([N+](=O)[O-])cc4)o3)C=C2c2ccccc2)cc1 [UM0142546:01, 4E1RCat]
0.7821	O=C(COc1ccc(Cl)cc1)N[C@H]1CC[C@H](NC(=O)COc2ccc(Cl)cc2)CC1 [UM0142547:01, ISRIB (trans-isomer)]
2.476	CCCCN(Cc1ccc(C(=O)NO)cc1)C(=O)Nc1ccccc1 [UM0142549:01, Nexturastat A]
10.94	Cc1ccc(CNc2ncnc3ccc(-c4ccc(CO)o4)cc23)o1 [UM0142550:01, ML167]
23.22	CN1CCN(c2ccc(OC(F)(F)F)c(Nc3ncc4c(n3)-c3c(c(C(N)=O)nn3CCO)CC4)c2)CC1 [UM0142553:01, NMS-1286937]
0.7266	Cc1c(F)cc(C(=O)NC2CC2)cc1-c1ccc(C(=O)NCC(C)(C)C)cn1 [UM0142557:01, Losmapimod]
1.467	Cc1ccc2nc(NCCN)c3ncc(C)n3c2c1 [UM0142559:01, BMS-345541(free base)]
5.75	O=C(NCc1cccc(O)c1)c1cc2cc(F)ccc2[nH]1 [UM0142568:01, KX1-004]
41.79	CN(C)c1cccc(-c2c3c(=O)n(-c4ccccc4Cl)[nH]c3cc(=O)n2C)c1 [UM0142578:01, GKT137831]
8.361	CN(CC(=O)N(Cc1ccc(C2CCCCC2)cc1)c1ccc(C(=O)O)cc1)S(=O)(=O)c1c(F)c(F)c(F)c(F)c1F [UM0142580:01, SH-4-54]
3.619	CN(C)CCCNC(=O)c1ccc(-c2cc(O)c3ncccc3c2)cc1 [UM0142607:01, ML324]
13.24	N=C1NC(=O)/C(=C/c2ccc(O)cc2)S1 [UM0142634:01, Mirin]
10.66	O=S(=O)(N=Cc1c(O)ccc2ccccc12)c1cccs1 [UM0142640:01, STF 083010]
10.96	O=C(Nc1cccnc1)c1cc(-c2ccnc(F)c2)ccc1OCc1ccccc1 [UM0142641:01, GSK2578215A]
24.94	Cc1cc(C)c(S(=O)(=O)n2cc(C)cc2C)c(C)c1 [UM0142646:01, HJC 0350]
-0.6597	N[C@@H](CCNCc1ccc(Cl)cc1)C(=O)N1CCCCC1 [UM0142648:01, UAMC 00039 dihydrochloride]
26.28	Cn1cc(-c2ccc(F)c(C(F)(F)F)c2)nc1C1CCN(c2ncnc3[nH]ncc23)CC1 [UM0142649:01, LY2584702]

SMILES	Inh (PKA) [%]
COc1cccc2c1C(=O)c1c(O)c3c(c(O)c1C2=O)C[C@@](O)(C(=O)CO)C[C@@H]3O[C@H]1C[C@H](N)[C@H](O[C@@H]2CCCCO2)[C@H](C)O1 [UM0142479:01, Pirarubicin]	33.32
CC(C)[C@H](N)C(=O)N1CCC[C@H]1B(O)O [UM0142552:01, Talabostat mesylate]	-1.148
O=S(=O)(CC1CS1)c1ccc(Oc2ccccc2)cc1 (stereo not drawn) [UM0142583:01, SB-3CT]	17.13
CC(=O)O/N=C1/C(c2c(O)[nH]c3cc(Br)ccc23)=Nc2ccccc21 [UM0142638:01, BIO-acetoxime]	40.08

From PMC9995496, “A screen for MeCP2-TBL1 interaction inhibitors using a luminescence-based assay” (Scientific Reports, 2023)
